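All cell lines were grown in 96-well plates and treated with compound for 48 hours. GI50 marks 50% less growth. TGI: concentration producing complete growth inhibition.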
Tests used:
Assay in all cases: NCI-60 cell line screen, 48 h
786-0 renal = test system: 786-0 renal
A498 renal = test system: A498 renal
A549 NSCLC = test system: A549 NSCLC
ACHN renal = test system: ACHN renal
BT-549 breast = test system: BT-549 breast
CAKI-1 renal = test system: CAKI-1 renal
CCRF-CEM leukemia = test system: CCRF-CEM leukemia
COLO 205 colon = test system: COLO 205 colon
DU-145 prostate = test system: DU-145 prostate
EKVX NSCLC = test system: EKVX NSCLC
HCC-2998 colon = test system: HCC-2998 colon
HCT-116 colon = test system: HCT-116 colon
HCT-15 colon = test system: HCT-15 colon
HL-60(TB) leukemia = test system: HL-60(TB) leukemia
HOP-62 NSCLC = test system: HOP-62 NSCLC
HOP-92 NSCLC = test system: HOP-92 NSCLC
HS 578T breast = test system: HS 578T breast
HT29 colon = test system: HT29 colon
IGROV1 ovarian = test system: IGROV1 ovarian
K-562 leukemia = test system: K-562 leukemia
KM12 colon = test system: KM12 colon
LOX IMVI melanoma = test system: LOX IMVI melanoma
M14 melanoma = test system: M14 melanoma
MALME-3M melanoma = test system: MALME-3M melanoma
MCF7 breast = test system: MCF7 breast
MDA-MB-231 breast = test system: MDA-MB-231 breast
MDA-MB-435 = test system: MDA-MB-435
MOLT-4 leukemia = test system: MOLT-4 leukemia
NCI-H226 lung = test system: NCI-H226 lung
NCI-H23 lung = test system: NCI-H23 lung
NCI-H460 lung = test system: NCI-H460 lung
NCI-H522 lung = test system: NCI-H522 lung
NCI/ADR-RES ovarian = test system: NCI/ADR-RES ovarian
OVCAR-3 ovarian = test system: OVCAR-3 ovarian
OVCAR-4 ovarian = test system: OVCAR-4 ovarian
OVCAR-5 ovarian = test system: OVCAR-5 ovarian
OVCAR-8 ovarian = test system: OVCAR-8 ovarian
PC-3 prostate = test system: PC-3 prostate
RPMI-8226 leukemia = test system: RPMI-8226 leukemia
RXF 393 renal = test system: RXF 393 renal
SF-268 CNS = test system: SF-268 CNS
SF-295 CNS = test system: SF-295 CNS
SF-539 CNS = test system: SF-539 CNS
SK-MEL-2 melanoma = test system: SK-MEL-2 melanoma
SK-MEL-28 melanoma = test system: SK-MEL-28 melanoma
SK-MEL-5 melanoma = test system: SK-MEL-5 melanoma
SK-OV-3 ovarian = test system: SK-OV-3 ovarian
SN12C renal = test system: SN12C renal
SNB-19 CNS = test system: SNB-19 CNS
SNB-75 CNS = test system: SNB-75 CNS
SR leukemia = test system: SR leukemia
SW-620 colon = test system: SW-620 colon
T-47D breast = test system: T-47D breast
TK-10 renal = test system: TK-10 renal
U251 CNS = test system: U251 CNS
UACC-257 melanoma = test system: UACC-257 melanoma
UACC-62 melanoma = test system: UACC-62 melanoma
UO-31 renal = test system: UO-31 renal

With `CCc1c(C#N)c(SC(C(N)=O)c2ccccc2)nc(N2CCC(N)CC2)c1C#N` (stereo unspecified) the GI50 (786-0 renal) was 14.8 µM, the TGI (786-0 renal) was 28.3 µM and the GI50 (A498 renal) was 15.4 µM. It also gave a TGI (A498 renal) of 30.4 µM, a GI50 (A549 NSCLC) of 18.4 µM and a TGI (A549 NSCLC) of 44.2 µM. It also gave a GI50 (ACHN renal) of 18.1 µM, a TGI (ACHN renal) of 38.8 µM and a GI50 (BT-549 breast) of 13.6 µM. The TGI (BT-549 breast) was 27.3 µM, the GI50 (CAKI-1 renal) was 14.7 µM and the TGI (CAKI-1 renal) was 28.6 µM. It also gave a GI50 (CCRF-CEM leukemia) of 15.2 µM, a TGI (CCRF-CEM leukemia) of 36.8 µM and a GI50 (COLO 205 colon) of 14.2 µM. The TGI (COLO 205 colon) was 27.8 µM, the GI50 (DU-145 prostate) was 16.9 µM and the TGI (DU-145 prostate) was 31.1 µM. The GI50 (EKVX NSCLC) was 15.5 µM, the TGI (EKVX NSCLC) was 36.9 µM and the GI50 (HCC-2998 colon) was 14.1 µM. The TGI (HCC-2998 colon) was 27.1 µM, the GI50 (HCT-116 colon) was 13.5 µM and the TGI (HCT-116 colon) was 27.4 µM. The GI50 (HCT-15 colon) was 53.5 µM, the TGI (HCT-15 colon) was greater than 100 µM and the GI50 (HL-60(TB) leukemia) was 10.2 µM. The TGI (HL-60(TB) leukemia) was 25.9 µM, the GI50 (HOP-62 NSCLC) was 15.9 µM and the TGI (HOP-62 NSCLC) was 30.6 µM. For the same compound, the GI50 (HOP-92 NSCLC) was 4.56 µM, the TGI (HOP-92 NSCLC) was 19.2 µM and the GI50 (HS 578T breast) was 14.1 µM. For the same compound, the TGI (HS 578T breast) was 41.1 µM, the GI50 (HT29 colon) was 14.3 µM and the TGI (HT29 colon) was 30.7 µM. The GI50 (IGROV1 ovarian) was 14 µM, the TGI (IGROV1 ovarian) was 27.9 µM and the GI50 (K-562 leukemia) was 12.4 µM. The TGI (K-562 leukemia) was 28.6 µM, the GI50 (KM12 colon) was 15.9 µM and the TGI (KM12 colon) was 31.4 µM. For the same compound, the GI50 (LOX IMVI melanoma) was 14.3 µM, the TGI (LOX IMVI melanoma) was 27.4 µM and the GI50 (M14 melanoma) was 16.2 µM. For the same compound, the TGI (M14 melanoma) was 30.6 µM, the GI50 (MALME-3M melanoma) was 14.6 µM and the TGI (MALME-3M melanoma) was 28.1 µM. It also gave a GI50 (MCF7 breast) of 13 µM, a TGI (MCF7 breast) of 26.8 µM and a GI50 (MDA-MB-231 breast) of 14.7 µM. It also gave a TGI (MDA-MB-231 breast) of 28 µM, a GI50 (MDA-MB-435) of 15.4 µM and a TGI (MDA-MB-435) of 29.6 µM. For the same compound, the GI50 (MOLT-4 leukemia) was 11.5 µM, the TGI (MOLT-4 leukemia) was 31.2 µM and the GI50 (NCI-H226 lung) was 13 µM. The TGI (NCI-H226 lung) was 27.7 µM, the GI50 (NCI-H23 lung) was 16.4 µM and the TGI (NCI-H23 lung) was 31 µM. It also gave a GI50 (NCI-H460 lung) of 16.1 µM, a TGI (NCI-H460 lung) of 30.7 µM and a GI50 (NCI-H522 lung) of 12.9 µM. It also gave a TGI (NCI-H522 lung) of 27.1 µM, a GI50 (NCI/ADR-RES ovarian) greater than 100 µM and a TGI (NCI/ADR-RES ovarian) greater than 100 µM. The GI50 (OVCAR-3 ovarian) was 14.5 µM, the TGI (OVCAR-3 ovarian) was 28.2 µM and the GI50 (OVCAR-4 ovarian) was 15.5 µM. For the same compound, the TGI (OVCAR-4 ovarian) was 34.3 µM, the GI50 (OVCAR-5 ovarian) was 15.5 µM and the TGI (OVCAR-5 ovarian) was 31.7 µM. For the same compound, the GI50 (OVCAR-8 ovarian) was 15.9 µM, the TGI (OVCAR-8 ovarian) was 33.7 µM and the GI50 (PC-3 prostate) was 12.9 µM. It also gave a TGI (PC-3 prostate) of 26.5 µM, a GI50 (RPMI-8226 leukemia) of 13.7 µM and a TGI (RPMI-8226 leukemia) of 34.4 µM. The GI50 (RXF 393 renal) was 10.4 µM, the TGI (RXF 393 renal) was 22.7 µM and the GI50 (SF-268 CNS) was 14.2 µM. For the same compound, the TGI (SF-268 CNS) was 29.2 µM, the GI50 (SF-295 CNS) was 14.8 µM and the TGI (SF-295 CNS) was 28.7 µM. It also gave a GI50 (SF-539 CNS) of 15.3 µM, a TGI (SF-539 CNS) of 28.9 µM and a GI50 (SK-MEL-2 melanoma) of 14.7 µM. The TGI (SK-MEL-2 melanoma) was 28.5 µM, the GI50 (SK-MEL-28 melanoma) was 14.7 µM and the TGI (SK-MEL-28 melanoma) was 27.9 µM. The GI50 (SK-MEL-5 melanoma) was 15.1 µM, the TGI (SK-MEL-5 melanoma) was 28.3 µM and the GI50 (SK-OV-3 ovarian) was 15.7 µM. For the same compound, the TGI (SK-OV-3 ovarian) was 29.8 µM, the GI50 (SN12C renal) was 13.1 µM and the TGI (SN12C renal) was 26 µM. For the same compound, the GI50 (SNB-19 CNS) was 14.9 µM, the TGI (SNB-19 CNS) was 28.5 µM and the GI50 (SNB-75 CNS) was 11.2 µM. For the same compound, the TGI (SNB-75 CNS) was 24.6 µM, the GI50 (SR leukemia) was 16.2 µM and the TGI (SR leukemia) was 38.1 µM. For the same compound, the GI50 (SW-620 colon) was 15.5 µM, the TGI (SW-620 colon) was 29.6 µM and the GI50 (T-47D breast) was 14.6 µM. The TGI (T-47D breast) was 31.8 µM, the GI50 (TK-10 renal) was 15.3 µM and the TGI (TK-10 renal) was 29.9 µM. It also gave a GI50 (U251 CNS) of 15.7 µM, a TGI (U251 CNS) of 30.5 µM and a GI50 (UACC-257 melanoma) of 14.3 µM. The TGI (UACC-257 melanoma) was 29.3 µM, the GI50 (UACC-62 melanoma) was 15 µM and the TGI (UACC-62 melanoma) was 28.4 µM. It also gave a GI50 (UO-31 renal) greater than 100 µM and a TGI (UO-31 renal) greater than 100 µM.

From PubChem BioAssay (NCI)
